Test results taken from US20200222474A1, “COMPOSITIONS AND METHODS FOR INCREASING PHYTOCHEMICAL BIOAVAILABLITY AND BIOACTIVITY” (North Carolina State University, priority 2017, published 2020).

Assays:
NCK2418 (ΔLBA0227) = assay: Phenotypic growth analysis of deletion mutant (PTS EIIC); assay type: cell-based, Lactobacillus acidophilus; conditions: compared with background Δupp strain
Experimental: (§1) Phenotypic growth assays were performed using 1% (v/v) overnight cultures of L. acidophilus strains (Table 2) and other Lactobacillus species (Table 3) grown on SDM supplemented with 1% (w/v) glucose to inoculate 200 μL of SDM supplemented with 1% (w/v) of the examined carbohydrate (0.5% in the case of esculin) in 96-well microplate wells (Corning Costar, Corning, N.Y., USA) in duplicate or triplicate wells, respectively. The microplates were sealed with clear adhesive film, incubated at 37° C. in a Fluostar Optima microplate reader (BMG Labtech, Cary, N.C., USA), and the cell optical density (OD600) was monitored for 30 hours.
Construction of gene deletion mutants. The L. acidophilus NCFM genes LBA0225 and LBA0726, both encoding P-Bgl of glycoside hydrolase family 1 (GH1) enzymes in addition to the LBA0227 and LBA0725 genes encoding an EIIC and an EIICBA components of two PTS systems, respectively, were deleted using the upp-based counterselectable gene replacement system. Briefly, in-frame deletions were constructed by amplifying 650-750 bp of the up- and downstream flanking regions of the deletion targets with two primer pairs (e.g., LBA0225A/LBA0225B and LBA0225C/LBA0225D; Table 4). The resulting purified products were joined by splicing using overlap extension PCR (SOE-PCR63) and amplified to establish the deletion alleles. The SOE-PCR products, that include flanking restriction enzyme sites, were cloned within the BamHI and SacI/EcoRI sites of the pTRK935 integration vector and transformed into E. coli EC101. The resulting recombinant plasmids (pTRK1113-6) were confirmed by DNA sequencing and electroporated into L. acidophilus NCK1910 (Table 2) that contains the pTRK669 helper plasmid, and the recovery of the single- and double-crossover recombinants was performed as previously described. Recombinants carrying the new gene deletion alleles were isolated by colony PCR using primer pairs denoted up/down (e.g., LBA0225up/LBA0225down), which anneal to the flanking regions of the amplicons. Sequence integrity and in-frame deletions were verified by DNA sequencing employing the aforementioned primer pairs and primer denoted mid (e.g., LBA0225mid). The mutations were in-frame deletions of 90-96% of the coding regions.
To establish the functional significance of these two loci, single deletions of each PTS EII and P-Bgl gene, and a double deletion of both P-Bgl genes were constructed using the upp-based counter-selectable gene replacement system (Table 2) and the growth phenotypes of the mutant strains were analyzed (FIG. 3). […]

L. acidophilus NCFM = assay: Growth of L. acidophilus NCFM on plant glycosides as single carbon source (OD600); assay type: cell-based, Lactobacillus acidophilus; conditions: for Growth (OD600 max class) of L. acidophilus NCFM: SDM + 1% (w/v) carbohydrate (0.5% esculin), 37° C., 30 hours, corrected to medium without carbohydrate; for OD600 max: single carbon source, 200 μl cultures, 96 microtitre plates, corrected for medium without carbon source
Experimental: For initial growth and gene expression studies, L. acidophilus NCFM was propagated three times in semi-defined medium (SDM) supplemented with either 1% or 0,5% (w/v) of the plant glycoside or carbohydrate (Table 1). For the RNA-seq analysis, cells were harvested by centrifugation (3,220×10 min, 25° C.) in the mid-exponential phase (OD600=0.6-0.8) and stored at −80° C. for subsequent RNA isolation. For the mass spectrometry metabolite analyses, 200 μt samples were taken at 0, 3, 6, 9, 12, and 24 hours of growth; cells were removed by centrifugation; and supernatants were stored at −80° C. for further analysis.
as §1
The growth of L. acidophilus NCFM was evaluated on twelve chemically diverse, nutritionally relevant and/or therapeutically active PGs 1; Table 1). FIG. 1A provides the structures and common sources of plant glycoside substrates described herein. The compounds that support growth of Lactobacillus acidophilus are in green. RI: β-D-Glcp; R2: Gentiobioside (β-D-Glcp-(1,6)-D-Glcp); R3: Rutinoside (α-L-Rhaf-(1,6)-D-Glcp). The graph in FIG. 1B depicts plant glycoside utilization analyzed by mass spectrometry and the growth as the maximum OD600. Due to the low solubility of polydatin, OD600 cannot be used as a growth metric and utilization of this compound is confirmed by the production of lactate as well as a high utilization level based on the metabolite analysis.

[1] = tested on: L. intestinalis Th4, ATCC 49335, DSM 6629; assay: Phenotypic growth assay (OD600); assay type: cell-based; conditions: SDM + 1% (w/v) carbohydrate (0.5% esculin), 37° C., 30 hours; corrected to medium without carbohydrate
Experimental: as §1

[2] = tested on: L. jensenii ATCC 25258, 62G, DSM 20557; assay: Phenotypic growth assay (OD600); assay type: cell-based; conditions: SDM + 1% (w/v) carbohydrate (0.5% esculin), 37° C., 30 hours; corrected to medium without carbohydrate
Experimental: as §1

[3] = tested on: L. amyloverus ATCC 33620, DSM 20531; assay: Phenotypic growth assay (OD600); assay type: cell-based; conditions: SDM + 1% (w/v) carbohydrate (0.5% esculin), 37° C., 30 hours; corrected to medium without carbohydrate
Experimental: as §1

L. animalis DSM 20602 = assay: Phenotypic growth assay (OD600); assay type: cell-based; conditions: SDM + 1% (w/v) carbohydrate (0.5% esculin), 37° C., 30 hours; corrected to medium without carbohydrate
Experimental: as §1

[4] = tested on: L. crispatus ATCC 33820, DSM 20584; assay: Phenotypic growth assay (OD600); assay type: cell-based; conditions: SDM + 1% (w/v) carbohydrate (0.5% esculin), 37° C., 30 hours; corrected to medium without carbohydrate
Experimental: as §1

L. gasseri ATCC 33323 = assay: Phenotypic growth assay (OD600); assay type: cell-based; conditions: SDM + 1% (w/v) carbohydrate (0.5% esculin), 37° C., 30 hours; corrected to medium without carbohydrate
Experimental: as §1

[5] = tested on: L. reuteri (ATCC 23272, DSM 20016); assay: Phenotypic growth assay (OD600); assay type: cell-based; conditions: SDM + 1% (w/v) carbohydrate (0.5% esculin), 37° C., 30 hours; corrected to medium without carbohydrate
Experimental: as §1

[6] = tested on: L. rhanmosus GG (ATCC 53103); assay: Phenotypic growth assay (OD600); assay type: cell-based; conditions: SDM + 1% (w/v) carbohydrate (0.5% esculin), 37° C., 30 hours; corrected to medium without carbohydrate
Experimental: as §1

[7] = tested on: L. plantarum sp. plantarum ATCC 14917, LA70; assay: Phenotypic growth assay (OD600); assay type: cell-based; conditions: SDM + 1% (w/v) carbohydrate (0.5% esculin), 37° C., 30 hours; corrected to medium without carbohydrate
Experimental: as §1

L. helveticus CNRZ32 = assay: Phenotypic growth assay (OD600); assay type: cell-based; conditions: SDM + 1% (w/v) carbohydrate (0.5% esculin), 37° C., 30 hours; corrected to medium without carbohydrate
Experimental: as §1

L. fermentum ATCC 14931 = assay: Phenotypic growth assay (OD600); assay type: cell-based; conditions: SDM + 1% (w/v) carbohydrate (0.5% esculin), 37° C., 30 hours; corrected to medium without carbohydrate
Experimental: as §1

L. johnsonii ATCC 33200 = assay: Phenotypic growth assay (OD600); assay type: cell-based; conditions: SDM + 1% (w/v) carbohydrate (0.5% esculin), 37° C., 30 hours; corrected to medium without carbohydrate
Experimental: as §1

L. acidophilus LA-1 = assay: Phenotypic growth assay (OD600); assay type: cell-based; conditions: SDM + 1% (w/v) carbohydrate (0.5% esculin), 37° C., 30 hours; corrected to medium without carbohydrate
Experimental: as §1

Structure (SMILES)	growth of the ΔLBA0227 mutant (inactive EIIC) (NCK2418 (ΔLBA0227))	Growth (OD600 max class) of L. acidophilus NCFM (L. acidophilus NCFM)	OD600 max (L. acidophilus NCFM; growth concentration 1% (w/v))	Growth (OD600 max class) of L. intestinalis Th4, ATCC 49335, DSM 6629 [1]	Growth (OD600 max class) of L. jensenii ATCC 25258, 62G, DSM 20557 [2]	Growth (OD600 max class) of L. amyloverus ATCC 33620, DSM 20531 [3]	Growth (OD600 max class) of L. animalis DSM 20602 (L. animalis DSM 20602)	Growth (OD600 max class) of L. crispatus ATCC 33820, DSM 20584 [4]	Growth (OD600 max class) of L. gasseri ATCC 33323 (L. gasseri ATCC 33323)	Growth (OD600 max class) of L. reuteri (ATCC 23272, DSM 20016) [5]	Growth (OD600 max class) of L. rhanmosus GG (ATCC 53103) [6]	Growth (OD600 max class) of L. plantarum sp. plantarum ATCC 14917, LA70 [7]	Growth (OD600 max class) of L. helveticus CNRZ32 (L. helveticus CNRZ32)	Growth (OD600 max class) of L. fermentum ATCC 14931 (L. fermentum ATCC 14931)	Growth (OD600 max class) of L. johnsonii ATCC 33200 (L. johnsonii ATCC 33200)	Growth (OD600 max class) of L. acidophilus LA-1 (L. acidophilus LA-1)	OD600 max (L. acidophilus NCFM; growth concentration 0.5% (w/v))
OCc1ccccc1O[C@@H]1O[C@H](CO)[C@@H](O)[C@H](O)[C@H]1O [Salicin]	invariant	+++ (“+++” signifies OD600 max > 0.6.)	0.8	− (“−” signifies OD600 max < 0.1.)	++ (“++” signifies 0.6 > OD600 max > 0.3.)	− (“−” signifies OD600 max < 0.1.)	+ (“+” signifies 0.3 > OD600 max > 0.1.)	+++ (“+++” signifies OD600 max > 0.6.)	++ (“++” signifies 0.6 > OD600 max > 0.3.)	− (“−” signifies OD600 max < 0.1.)	+++ (“+++” signifies OD600 max > 0.6.)	+++ (“+++” signifies OD600 max > 0.6.)	− (“−” signifies OD600 max < 0.1.)	− (“−” signifies OD600 max < 0.1.)	+ (“+” signifies 0.3 > OD600 max > 0.1.)	+++ (“+++” signifies OD600 max > 0.6.)	
O=c1ccc2cc(O[C@@H]3O[C@H](CO)[C@@H](O)[C@H](O)[C@H]3O)c(O)cc2o1 [Esculin]	invariant	++ (“++” signifies 0.6 > OD600 max > 0.3.)		− (“−” signifies OD600 max < 0.1.)	++ (“++” signifies 0.6 > OD600 max > 0.3.)	− (“−” signifies OD600 max < 0.1.)	+ (“+” signifies 0.3 > OD600 max > 0.1.)	++ (“++” signifies 0.6 > OD600 max > 0.3.)	++ (“++” signifies 0.6 > OD600 max > 0.3.)	− (“−” signifies OD600 max < 0.1.)	++ (“++” signifies 0.6 > OD600 max > 0.3.)	++ (“++” signifies 0.6 > OD600 max > 0.3.)	− (“−” signifies OD600 max < 0.1.)	− (“−” signifies OD600 max < 0.1.)	− (“−” signifies OD600 max < 0.1.)	+++ (“+++” signifies OD600 max > 0.6.)	0.4
